In article PMC3085482, “Phosphorylation-Dependent Differential Regulation of Plant Growth, Cell Death, and Innate Immunity by the Regulatory Receptor-Like Kinase BAK1” (PLoS Genetics, 2011):

Assays:
[1] = molecular target: T1, BRI1 CD (MBP-BRI1) (Arabidopsis thaliana, UniProt O22476); assay: in vitro kinase assay with […]-γ-ATP, SDS-PAGE autoradiography; assay type: biochemical; details: 1 µM unlabelled ATP plus [32P]-γ-ATP; labelled compound; myelin basic protein; 10 mM MgCl2, 10 mM MnCl2, pH 7.5, 30 °C
T1 sequence (O22476 814-1196): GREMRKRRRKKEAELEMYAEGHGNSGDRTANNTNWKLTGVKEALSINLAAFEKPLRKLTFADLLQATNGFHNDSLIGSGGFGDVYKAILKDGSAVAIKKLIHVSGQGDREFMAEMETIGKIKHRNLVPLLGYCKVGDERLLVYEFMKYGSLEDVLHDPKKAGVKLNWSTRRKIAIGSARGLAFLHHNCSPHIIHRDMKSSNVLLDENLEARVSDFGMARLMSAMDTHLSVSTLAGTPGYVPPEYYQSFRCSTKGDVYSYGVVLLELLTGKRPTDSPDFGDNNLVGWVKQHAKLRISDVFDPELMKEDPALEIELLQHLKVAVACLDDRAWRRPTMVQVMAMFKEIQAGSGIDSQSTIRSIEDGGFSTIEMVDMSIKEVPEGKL

[2] = molecular target: T2, EFR CD (MBP-EFR) (Arabidopsis thaliana, UniProt C0LGT6); assay: as above; assay type: biochemical; details: 1 µM unlabelled ATP plus [32P]-γ-ATP; labelled compound; myelin basic protein; 10 mM MgCl2, 10 mM MnCl2, pH 7.5, 30 °C
T2 sequence (C0LGT6 682-1031): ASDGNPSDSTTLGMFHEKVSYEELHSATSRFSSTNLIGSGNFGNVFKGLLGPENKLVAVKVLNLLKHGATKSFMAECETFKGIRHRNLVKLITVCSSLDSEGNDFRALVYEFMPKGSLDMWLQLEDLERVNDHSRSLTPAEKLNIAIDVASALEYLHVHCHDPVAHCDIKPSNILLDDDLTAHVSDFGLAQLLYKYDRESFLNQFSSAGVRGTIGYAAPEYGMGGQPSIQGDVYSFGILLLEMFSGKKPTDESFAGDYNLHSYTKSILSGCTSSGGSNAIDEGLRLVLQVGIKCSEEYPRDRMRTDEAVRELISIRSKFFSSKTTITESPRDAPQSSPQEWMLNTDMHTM

[3] = substrate: Nc1ncnc2c1ncn2[C@@H]1O[C@H](COP(=O)(O)OP(=O)(O)OP(=O)(O)O)[C@@H](O)[C@H]1O; assay: autophosphorylation over ATP range, PVDF blot autoradiography (PhosphorImager); assay type: biochemical, Arabidopsis thaliana

Molecule: Nc1ncnc2c1ncn2[C@@H]1O[C@H](COP(=O)(O)OP(=O)(O)OP(=O)(O)O)[C@@H](O)[C@H]1O [ATP]
- in vitro kinase assay with [32P]-γ-ATP, SDS-PAGE autoradiography [1]: BRI1 CD had a very strong auto- and trans-phosphorylation capacity
- in vitro kinase assay with [32P]-γ-ATP, SDS-PAGE autoradiography [2]: EFR CD possessed only minor auto-phosphorylation capacity

B1: BAK1 CD (GST-BAK1) (Arabidopsis thaliana) (protein)
chain: DHFFDVPAEEDPEVHLGQLKRFSLRELQVASDNFSNKNILGRGGFGKVYKGRLADGTLVAVKRLKEERTQGGELQFQTEVEMISMAVHRNLLRLRGFCMTPTERLLVYPYMANGSVASCLRERPESQPPLDWPKRQRIALGSARGLAYLHDHCDPKIIHRDVKAANILLDEEFEAVVGDFGLAKLMDYKDTHVTTAVRGTIGHIAPEYLSTGKSSEKTDVFGYGVMLLELITGQRAFDLARLANDDDVMLLDWVKGLLKEKKLEALVDVDLQGNYKDEEVEQLIQVALLCTQSSPMERPKMSEVVRMLEGDGLAERWEEWQKEEMFRQDFNYPTHHPAVSGWIIGDSTSQIENEYPSGPR
notes: cytoplasmic domain residues 256-615, N-terminal GST tag kept (pGEX-4T1), E. coli BL21, glutathione purified
- Km ([3]; autophosphorylation of GST-BAK1 CD): ∼7 µM

B2: BAK1 CD (GST-BAK1) (Arabidopsis thaliana; C408Y) (protein)
chain: DHFFDVPAEEDPEVHLGQLKRFSLRELQVASDNFSNKNILGRGGFGKVYKGRLADGTLVAVKRLKEERTQGGELQFQTEVEMISMAVHRNLLRLRGFCMTPTERLLVYPYMANGSVASCLRERPESQPPLDWPKRQRIALGSARGLAYLHDHYDPKIIHRDVKAANILLDEEFEAVVGDFGLAKLMDYKDTHVTTAVRGTIGHIAPEYLSTGKSSEKTDVFGYGVMLLELITGQRAFDLARLANDDDVMLLDWVKGLLKEKKLEALVDVDLQGNYKDEEVEQLIQVALLCTQSSPMERPKMSEVVRMLEGDGLAERWEEWQKEEMFRQDFNYPTHHPAVSGWIIGDSTSQIENEYPSGPR
notes: as for B1
- Km ([3]; autophosphorylation of GST-BAK1 CD (BAK1-5 protein)): ∼25 µM
